Data reported in patent publication US9242972B2, “Compounds” (Glaxo Group Limited, priority 2012, dated 2016).

Columns and labels:
[1] = system: IL-17A secreted from antiCD3/CD28 stimulated Peripheral Blood Mononuclear cells (PBMC); assay: Peripheral Blood Mononucleocyte Cell Assay (PBMC Assay - IL-17); format: cell-based; settings: inhibition of IL-17A release, human PBMC stimulated with CD3/CD28 beads, 48 hours; read-out: mean pIC50 (converted)
Experimental: Peripheral Blood Mononucleocyte Cell Assay (PBMC Assay—IL-17)
This assay is designed to measure levels of IL-17A secreted from antiCD3/CD28 stimulated frozen Peripheral Blood Mononuclear cells (PBMC) isolated from human blood with the aim of identifying inhibitors of IL-17A release.
2. The compounds for screening are dispensed into a master plate at 10 mM top concentration which are serially diluted 1:3 across 11 points in DMSO, then 500 nl is transferred into a 384-well flat-bottomed Greiner plate to which 50 ul of cell suspension is added: for the single shot screening the highest concentration of compound is 10^−5 M; for 11 point full curve dose response studies the highest concentration is 10^−4 M.
As a low control, DMSO (as supplied, for example, by VWR) (final concentration 1%) in column 6 (16 points).
As a high control, 5-(4-fluorophenyl)-2-ureidothiophene-3-carboxamide (obtainable from, for example, Sigma) at a final concentration of 10^−4 M in DMSO should be used in column 18 (16 points).
9. Make the cell suspension at the concentration 8×10^5 cells/mL. to give a final number of 40,000 cells/well.
1. Add well mixed CD3/CD28 Dynabeads (as supplied, for example, by Dynal) to achieve ratio bead:cell=2:1 (i.e a dilution of 1 in 20). Mix thoroughly.
2. Dispense the suspension into the 384 Assay Plates using Multidrop (50 ul per well). If the volume of cell suspension is large, mix the suspension after dispensing into every other plate.
3. Cover the plates with the lids and place them to the humidified incubator (37° C., 5% CO2) for 48 hours.
1. Block cytokine capture Mesoscale Discovery MSD plates with 0.1% Block buffer B (provided by Mesoscale Discovery) in D-PBS solution using 40 ul per well.
1. Transfer 10 ul of supernatants from assay plates to the MSD plates using Cybiwell. Ensure that all wells are covered with the solution. Tap the plate gently, if some of the wells are not covered with the supernatant.
3. Add 10 ul of MSD IL-17 detecting antibody using multidrop (1 ug/mL in D-PBS without Ca^2+ and Mg^2+ (supplied, for example, by Gibco)).
4. Cover the plates with adhesive foil and incubated with shaking for 3 hours at room temperature
7. Add 35 ul of MSD Read Buffer T×2 using multidrop.
8. Read plates on MSD MA6000 reader using the 384 well plate protocol as per manufacturer's instructions.

[2] = target: T1, RORγ ligand binding domain (RORγ-LBD) (Homo sapiens, UniProt P51449); assay: Dual Fluorescence Energy Transfer (FRET) Assay; format: biochemical; settings: RORγ-LBD / SRC1(2) co-activator peptide interaction, read-out: mean pIC50 (converted)
T1 construct: His6 with thrombin site) (N); made in house; host or cells: E. coli BL21(DE3), modified pET21a vector
T1 sequence (P51449 263-518): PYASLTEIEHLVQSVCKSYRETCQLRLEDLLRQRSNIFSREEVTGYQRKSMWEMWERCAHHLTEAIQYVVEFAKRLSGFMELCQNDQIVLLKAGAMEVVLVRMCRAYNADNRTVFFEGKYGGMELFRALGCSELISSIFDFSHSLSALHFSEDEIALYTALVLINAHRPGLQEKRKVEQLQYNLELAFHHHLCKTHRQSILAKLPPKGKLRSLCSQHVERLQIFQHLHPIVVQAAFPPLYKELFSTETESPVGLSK
From the text: Dual Fluorescence Energy Transfer (FRET) Assay
This assay is based on the knowledge that nuclear receptors interact with cofactors (transcription factors) in a ligand dependent manner. RORγ is a typical nuclear receptor in that it has an AF2 domain in the ligand binding domain (LBD) which interacts with co-activators. The sites of interaction have been mapped to the LXXLL (SEQ ID NO:1) motifs in the co-activator SRC 1(2) sequences. Short peptide sequences containing the LXXLL (SEQ ID NO:1) motif mimic the behavior of full-length co-activator.
This assay measures ligand-mediated interaction of the co-activator peptide with the purified bacterial-expressed RORγ ligand binding domain (RORγ-LBD) to indirectly assess ligand binding. RORγ has a basal level of interaction with the co-activator SRC1(2) in the absence of ligand, Thus, it is possible to find ligands that inhibit or enhance the RORγ/SRC1(2) interaction.
Human RORγ Ligand Binding Domain (RORγ-LBD) was expressed in E. coli strain BL21(DE3) as an amino-terminal polyhistidine tagged fusion protein. DNA encoding this recombinant protein was sub-cloned into a modified pET21a expression vector (Novagen). A modified polyhistidine tag ([…]) (SEQ ID NO:2) was fused in frame to residues 263-518 of the human RORγ sequence.
Approximately 50 g E. coli cell pellet was resuspended in 300 mL of lysis buffer (30 mM imidazole pH 7.0 and 150 mM NaCl). Cells were lysed by sonication and cell debris was removed by centrifugation for 30 minutes at 20,000 g at 4° C. The cleared supernatant was filtered through a 0.45 uM cellulose acetate membrane filter. The clarified lysate was loaded onto a column (XK-26) packed with ProBond Nickel Chelating resin (InVitrogen), pre-equilibrated with 30 mM imidazole pH 7.0 and 150 mM NaCl. After washing to baseline absorbance with the equilibration buffer, the column was developed with a gradient from 30 to 500 mM imidazole pH 7.0. Column fractions containing the RORγ-LBD protein were pooled and concentrated to a volume of 5 mLs. The concentrated protein was loaded onto a Superdex 200 column pre-equilibrated with 20 mM Tris-Cl pH 7.2 and 200 mM NaCl. The fractions containing the desired RORγ-LBD protein were pooled together.
Purified RORγ-LBD was buffer exchanged by exhaustive dialysis [3 changes of at least 20 volumes (8000×)] against PBS [100 mM NaPhosphate, pH 8 and 150 mM NaCl]. The concentration of RORγ-LBD was approximately 30 uM in PBS. Five-fold molar excess of NHS-LC-Biotin (Pierce) was added in a minimal volume of PBS. This solution was incubated with occasional gentle mixing for 60 minutes at ambient room temperature. The modified RORγ-LBD was dialyzed against 2 buffer changes—TBS pH 8.0 containing 5 mM DTT, 2 mM EDTA and 2% sucrose—each at least 20 times of the volume. The modified protein was distributed into aliquots, frozen on dry ice and stored at −80° C. The biotinylated RORγ-LBD was subjected to mass spectrometric analysis to reveal the extent of modification by the biotinylation reagent. In general, approximately 95% of the protein had at least a single site of biotinylation and the overall extent of biotinylation followed a normal distribution of multiple sites ranged from one to five.
A biotinylated peptide corresponding to amino acid 676 to 700 ([…]) (SEQ ID NO:3) of the co-activator steroid receptor coactivator SRC1(2) was generated using similar method.
Biotinylated SRC1(2) solution was prepared by adding an appropriate amount of biotinylated SRC1(2) from the 100 uM stock solution to a buffer containing 10 mM of freshly added DTT from solid to give a final concentration of 40 nM. An appropriate amount of Europium labeled Streptavidin was then added to the biotinylated SRC1(2) solution in a tube to give a final concentration of 10 nM. The tube was inverted gently and incubated for 15 minutes at room temperature. […]

SMILES | IC50 [2] [nM] | IC50 [1] [nM]
Cc1cc(C(C)C)cnc1N(CC(C)C)S(=O)(=O)c1ccc(OC[C@H]2CCNC[C@H]2F)cc1 (relative stereo) [Example 35, 4-((cis-3-fluoropiperidin-4-yl)methoxy)-N-isobutyl-N-(5-isopropyl-3-methylpyridin-2-yl)benzenesulfonamide] | – | 1000
Cc1noc(C)c1COc1ccc(S(=O)(=O)N(CC(C)C)c2nccc(C(F)(F)F)n2)cc1 [Example 14, 4-{[(3,5-dimethyl-4-isoxazolyl)methyl]oxy}-N-(2-methylpropyl)-N-[4-(trifluoromethyl)-2-pyrimidinyl]benzenesulfonamide] | > 10000 | –
Cc1cnc(N(CC(C)C)S(=O)(=O)c2ccc(OCc3c(C)noc3C)cc2)c(C)c1 [Example 15, 4-{[(3,5-dimethyl-4-isoxazolyl)methyl]oxy}-N-(3,5-dimethyl-2-pyridinyl)-N-(2-methylpropyl)benzenesulfonamide] | ≤ 31.6 | –
CC(C)CN(c1ccc(C(C)C)cn1)S(=O)(=O)c1ccc(OCC2CCOCC2)cc1 [Example 33, N-isobutyl-N-(5-isopropylpyridin-2-yl)-4-((tetrahydro-2H-pyran-4-yl)methoxy)benzenesulfonamide] | ≤ 31.6 | –
Cc1noc(C)c1COc1ccc(S(=O)(=O)N(CC2CCC2)c2ccc(C(C)C)cn2)cc1 [Example 47, N-(cyclobutylmethyl)-4-((3,5-dimethylisoxazol-4-yl)methoxy)-N-(5-isopropylpyridin-2-yl)benzenesulfonamide] | ≤ 31.6 | –
CCC(C)CN(c1ccc(C(C)C)cn1)S(=O)(=O)c1ccc(OCc2c(C)noc2C)cc1 (stereo not drawn) [Example 49, 4-((3,5-dimethylisoxazol-4-yl)methoxy)-N-(5-isopropylpyridin-2-yl)-N-(2-methylbutyl)benzenesulfonamide] | ≤ 31.6 | –

Continued, in another order:

IC50 [2] [nM] | SMILES | IC50 [1] [nM]
≤ 31.6 | Cc1noc(C)c1COc1ccc(S(=O)(=O)N(CC(C)C)c2ccc(C(C)C)cn2)cc1 [Example 2, 4-((3,5-dimethylisoxazol-4-yl)-methoxy)-N-isobutyl-N-(5-isopropylpyridin-2-yl)benzenesulfonamide] | 1000
≤ 31.6 | CCc1ccc(C)nc1N(CC(C)C)S(=O)(=O)c1ccc(OCc2c(C)noc2C)cc1 [Example 24, 4-((3,5-dimethylisoxazol-4-yl)methoxy)-N-(3-ethyl-6-methylpyridin-2-yl)-N-isobutylbenzenesulfonamide] | 1000
≤ 31.6 | Cc1cc(C(C)C)cnc1N(CC(C)C)S(=O)(=O)c1ccc(OCC2CCOCC2)cc1 [Example 31, N-isobutyl-N-(5-isopropyl-3-methylpyridin-2-yl)-4-((tetrahydro-2H-pyran-4-yl)methoxy)benzenesulfonamide] | –
≤ 31.6 | C=C(C)c1cnc(N(CC(C)C)S(=O)(=O)c2ccc(OCC3CCOCC3)cc2)c(C)c1 [Example 32, N-isobutyl-N-(3-methyl-5-(prop-1-en-2-yl)pyridin-2-yl)-4-((tetrahydro-2H-pyranyl)methoxy)benzenesulfonamide] | –
≤ 31.6 | Cc1cc(Cl)cnc1N(CC(C)C)S(=O)(=O)c1ccc(OCC2CCOCC2)cc1 [Example 34, N-(5-chloro-3-methylpyridin-2-yl)-N-isobutyl-4-((tetrahydro-2H-pyran-4-yl)methoxy)benzenesulfonamide] | –
≤ 31.6 | CC(C)c1ccc(N(C(C)C(C)C)S(=O)(=O)c2ccc(OCC3CCOCC3)cc2)nc1 (stereo not drawn) [Example 38, N-(5-isopropylpyridin-2-yl)-N-(3-methylbutan-2-yl)-4-((tetrahydro-2H-pyran-4-yl)methoxy)benzenesulfonamide] | 1000
